Reference: patent US6630490B2, “Methods for treatment of disease-induced peripheral neuropathy and related conditions” (NeoTherapeutics, Inc., priority 2000, dated 2003)

What was measured:
[1] = tested on: unoperated rats, mDCN-T13 heat, pinch and touch fields; assay: Nociceptive nerve sprouting in normally innervated skin (mDCN-T13 field mapping); assay type: in vivo, rat
Source text: (§1) “Isolation” of sensory fields: This procedure, the initial step in the study of collateral sprouting and was done as described in Diamond et al. (1992). Its purpose was to isolate the cutaneous innervation territory, or field, of a selected nerve within a vast surround of denervated back skin. The nerve used was the medial branch of the left dorsal cutaneous nerve (DCN), at segmental level T13 (mDCN-T13). The isolation of its field was achieved by surgically eliminating on the left side the 4 DCNs immediately rostral and caudal to DCN-T13 (respectively T9-T12 and L1-L4), the lateral branch of DCN-T13, and the 4 lateral cutaneous nerves supplying the flank skin adjacent to the DCN-T13 territory.
(§2) Mapping of sensory fields: As described in Nixon et al. (1984) and Doucette and Diamond (1987), the borders of the isolated mechano-nociceptive and heat-nociceptive fields, subserved respectively by the Aδ and C fibers mDCN-T13, were determined by systematically applying across the skin forceps pinches (for mechano-nociception) and brief applications of a 60° C. heat probe (for heat-nociception); the presence of nociceptive endings is indicated during these procedures when the stimuli elicit the “CTM reflex” response, a contraction of the underlying cutaneus trunci muscle, which causes a characteristic and easily recognized skin twitch (Theriault and Diamond, 1988). The low-threshold (“touch”) fields were measured electrophysiologically as described by Jackson and Diamond (1984). The DCN-T13 was placed across bipolar platinum electrodes that fed into a preamplifier and thence to an oscilloscope and audio amplifier. Brushing innervated skin with a fine bristle generates impulses in the large myelinated Aβ axons, producing audible responses that disappear abruptly as the bristle crosses into denervated territory. The areas of the cutaneous territories of the three sensory modalities studied (“pinch”, “heat” and “touch”) were measured using the MCID image analysis system (Imaging Research, Inc., St. Catharines, Ontario, Canada). […]

[2] = tested on: control and diabetic rats, sciatic nerve; assay: Sensory nerve conduction velocity (SNCV) in control and diabetic rats; assay type: in vivo, rat
Method: (§3) Induction of diabetes: Female, adult, Sprague-Dawley rats (250-275 g) were fasted overnight prior to the intraperitoneal injection of a freshly made solution of streptozotocin in 0.9% saline to deliver a dose of 50 mg/kg body weight. Food was restored and animals left for 3 days before determination of glucose levels in a blood sample obtained by tail prick. Animals with blood glucose levels >15 mmol/l were considered diabetic and used in the study. Treatment with the AIT-082 began on the day that hyperglycemia was confirmed. […] If they presented as diabetic then they were added to the study, if not they were omitted.
Nerve Conduction Velocity (NCV): Rats were anesthetized with halothane (4% in O2 for induction, 2-3% for maintenance) and the sciatic nerve exposed via an incision in the flank followed by separation of underlying musculature by blunt dissection. A thermistor probe was placed adjacent to the nerve and the wound closed with a skin clamp and a second, rectal, probe was positioned. Nerve and rectal temperature was maintained at 37° C. by a heating lamp and thermal pad connected to a temperature regulator and the thermistor probes. […] The distance between the two sites of stimulation was measured using surface calipers and NCV calculated as […]. NCV measurements were made in triplicate and the median used to represent the NCV. The thermistor probes were removed, the skin incision closed with wound clips and coated with Betadine and the animal withdrawn from halothane and monitored until it recovers consciousness. Rats were then returned to their cages with free access to food and water.

[3] = tested on: rats with isolated mDCN-T13 field receiving anti-NGF; assay: Sprouting blocked by anti-NGF treatment, rescue by AIT-082; assay type: in vivo, rat
Source text: as §1
Mapping of sensory fields: As described in Nixon et al. (1984) and Doucette and Diamond (1987), the borders of the isolated mechano-nociceptive and heat-nociceptive fields, subserved respectively by the Aδ and C fibers mDCN-T13, were determined by systematically applying across the skin forceps pinches (for mechano-nociception) and brief applications of a 60° C. heat probe (for heat-nociception); the presence of nociceptive endings is indicated during these procedures when the stimuli elicit the “CTM reflex” response, a contraction of the underlying cutaneus trunci muscle, which causes a characteristic and easily recognized skin twitch (Theriault and Diamond, 1988). […]

[4] = tested on: unoperated animals; assay: Detection of hyperalgesia; assay type: in vivo, rat
Method: Detection of hyperalgesia: Nociceptive responses were studied in lightly restrained animals as described in […] et al. (1999), using the latency of foot withdrawal from a 49° C. footbath, the temperature of the footbath at which withdrawal was initiated, and the heat thresholds for evoking the “CTM” reflex from back skin (see above). Hyperalgesia is defined here as a lowering of the threshold of a nociceptive stimulus required to produce a reflex response, and/or a reduction in the latency of that response. Administration of AIT-082: AIT-082 was obtained from NeoTherapeutics Inc., Irvine, Calif., USA. A 50 mg/ml solution in sterile 0.9% NaCl was made up freshly every three days. The standard administration protocol was a daily i.p. injection of 50 mg/kg AIT-082.

[5] = tested on: control and diabetic rats; assay: Formalin test in control and diabetic rats; assay type: in vivo, rat
Method: as §3
Formalin test: Rats were restrained manually and formalin (50 μl of 0.2% solution) injected sub-dermally into the hindpaw dorsum. Rats were then placed in an observation chamber and flinching behaviors counted in 1 minute blocks every 5 minutes for 1 hour.

[6] = tested on: control and diabetic rats; assay: Thermal response latency in control and diabetic rats; assay type: in vivo, rat; details: for thermal hyperalgesia (week 4) and hypoalgesia (week 8): diabetic rats
Method: as §3
Thermal response latency: Rats were placed in an observation chamber on the surface (floor temperature 30° C.) of a modified Hargreaves Apparatus (UARD, San Diego Calif.) and allowed to acclimate for 5 minutes. For measurement of thermal response latency, a heat source (delivering 4.5 amps to give a paw withdrawal latency of approximately 10 seconds in control rats) was maneuvered underneath the hind paw. The heat source was turned on manually and a stop clock activated until it shut off automatically when the paw was moved (24 sec cut off time). The procedure was repeated 4 times on the same paw at 5 minute intervals and the median of values 2-4 used to represent the thermal response latency.

[7] = tested on: rats with isolated mDCN-T13 field; assay: Collateral sprouting of nociceptive nerves into adjacent denervated skin; assay type: in vivo, rat
Source text: as §1, §2

[8] = tested on: unoperated animals; details: rat, in vivo; cited from earlier work
[9] = tested on: unoperated rats, mDCN-T13 heat, pinch and touch fields; details: systemically injected NGF; Diamond et al., 1992; Pertens et al., 1999; cited from earlier work
[10] = unoperated rats, 50 mg/kg daily for 20 days, versus saline

For `O=C(CCn1cnc2c(=O)[nH]cnc21)Nc1ccc(C(=O)O)cc1` [AIT-082, N-4-carboxyphenyl-3-(6-oxohydropurin-9-yl) propanamide], the “limited dose-response study for inducing nociceptive sprouting” value ([1]; daily i.p. injection of 50 mg/kg, not illustrated) was “well above threshold for inducing nociceptive sprouting, but below saturating levels”, the “nociceptive fields, pinch and heat (area of innervation)” value [1, 10] was “expanded significantly” and the “touch fields (NGF-insensitive Aβ fibers)” value [1, 10] was “unaffected”. The SNCV ([2]; control rats) was “no effect”, the SNCV deficit ([2]; diabetic rats, week 4) was “no effect” and the SNCV ([2]; diabetic rats, week 8) was “dose-dependent improvement”. The “sprouting under supra-threshold ("high") anti-NGF treatment” value ([3]; daily AIT-082 plus about 5-fold anti-NGF dose, fields after 22 days) was “sprouting continued to be absent”, the “sprouting under threshold ("low") anti-NGF treatment” value ([3]; daily AIT-082 plus daily anti-NGF, pinch and heat fields after 22 days) was “totally rescued the sprouting” and the “hyperalgesia, threshold temperature for foot withdrawal from a hot probe” value ([4]; FIG. 4(a)) was “does not cause hyperalgesia”. For the same compound, the “hyperalgesia, threshold temperature for evoking the CTM reflex in dorsal skin” value ([4]; FIG. 4(b)) was “does not cause hyperalgesia”, the “hyperalgesia, latency of foot withdrawal from a 49° C. hot bath” value ([4]; FIG. 4(c)) was “does not cause hyperalgesia” and the “hyperalgesia (a number of recognized tests)” value ([4]; standard AIT-082 administration, at any time during or following treatment) was “failed to provide any evidence for the occurrence of this phenomenon”. For the same compound, the formalin-evoked flinching ([5]; control and diabetic rats) was “dose-dependently reduced”, the “formalin-evoked hyperalgesia by phase” value ([5]; diabetic rats) was “suppression of hyperalgesia was notable in phases 1, Q, and 2a” and the thermal response latency ([6]; control rats) was “without effect”. The “thermal hyperalgesia (week 4) and hypoalgesia (week 8)” value [6] was “dose-dependently prevented both hyperalgesia and hypoalgesia”, the “thermal hyperalgesia (week 4) and hypoalgesia (week 8)” value ([6]; high dose 100 mg/kg) was “completely prevented both hyperalgesia at week 4 and hypoalgesia at week 8” and the “amount by which field expansions in the AIT-082 sprouting group exceeded controls” value ([7]; after 20 days of treatment, comparison from raw data of FIGS. 1 and 2) was “approximately equal to the expansion in field areas induced in unoperated animals”. The “expansion of nociceptive fields into adjacent denervated skin relative to control group” value ([7]; daily AIT-082 after field isolation, mapping every 3 or 4 days) was “increased expansion of the nociceptive fields” and the “time at which increased field expansion became apparent” value ([7]; daily AIT-082 versus saline) was “about 13 days post-isolation”.
In the case of “NGF: nerve growth factor, exogenous, systemically injected”, the hyperalgesia [8] is given as “causes hyperalgesia” and the “sprouting in normal skin” value [9] is given as “induces sprouting in normal skin”.
